Counter-ions that a name gives are not always drawn. Like-named read-outs stand apart in the source and are kept apart here.

The conditions of series [1]: humans; cited from earlier work.
For series [2] the following is noted: cited from earlier work.
The next series has as its system yeasts and molds. Particulars: pH 4.5 to 3.0; cited from earlier work.
For series [3] the following is noted: without aluminum-containing drugs, normal kidneys; cited from earlier work.
The conditions of series [4]: rats, 3 weeks, right femur calcium, as compared to a control; cited from earlier work.
Series [5] in a line: Titratable acidity of calcium sources. The series is classed as physicochemical. To be noted: from pH 3.5 to pH 8.3, 40 g sample. The source says:
Acidity is desired in the liquid nutritional product of the present invention for several reasons such as: to maintain the calcium salt solubility, to complement flavor, to control microbial growth, and to enhance the role of preservatives, specifically potassium benzoate or sodium benzoate. On the other hand, too much acidity can result in increased tartness and sourness that make the product undesirable from a sensory point of view. […] Titratable acidity is an indication of the total acidity of a beverage.

The conditions of series [6]: low birth weight infants; cited from earlier work.
The conditions of series [7]: piglets; cited from earlier work.
The conditions of series [8]: pH 3.5. The method, then: In this evaluation solubility was determined by a visual examination.
For series [9] the following is noted: cited from earlier work. This is another data set of the same source.

Regarding `O=C(O)O` [Calcium Carbonate, calcium carbonate], in [1], the Calcium absorption is 29.6%. Also, in series [2], the “adverse effects of large amounts” value was “constipation and abdominal distention”. `O=C(O)c1ccccc1` [benzoic acid]: the “preservative effect on reducing pH from 4.5 to 3.0” value in the series with yeasts and molds is given as “increased by nearly three times”. In the case of `O=C(O)CC(O)(CC(=O)O)C(=O)O` [Calcium Citrate, calcium citrate], the “Risk of aluminum toxicity” value in [3] is recorded as “does not pose a risk of aluminum toxicity”. The Relative calcium bioavailability in series [4] is 110%. With Calcium Glycerophosphate [CaGP], the Titratable acidity in [5] is 43.5 mL of 0.1N NaOH. Besides, the “Efficacy as source of calcium in TPN” value in series [6] and in series [7] was “as effective as calcium gluconate” throughout. Turning to `O=C(O)[C@H](O)[C@@H](O)[C@H](O)[C@H](O)CO` [D-Gluconic-Acid, D-gluconic acid (hemicalcium salt)], in series [8], the Solubility entry is given as “soluble” and the “Solubility over one month” value is given as “remained soluble at pH 3.5 for at least one month”.

As to vitamin D, the “calcium balance and fracture risk” value in [9] (600-800 IU/day) is “improve calcium balance and reduce fracture risk”. Besides, the “risks of excessive doses” value in series [9] (excessive doses) was “hypercalciuria and hypercalcemia”. For `O=P([O-])([O-])[O-].O=P([O-])([O-])[O-].[Ca+2].[Ca+2].[Ca+2]` [Tricalcium Phosphate, tricalcium phosphate], in [4], the Relative calcium bioavailability is 110%. With Calcium Citrate Malate, in series [5], the Titratable acidity is on record as 53.2 mL of 0.1N NaOH. The Calcium absorption in series [1] was 38.3%.

The values are drawn from patent US5609897A, “Powdered beverage concentrate or additive fortified with calcium and vitamin D” (priority 1995, dated 1997).
